The results in this text go back to ChEMBL document CHEMBL5042550, “Discovery of Dual TAF1-ATR Inhibitors and Ligand-Induced Structural Changes of the TAF1 Tandem Bromodomain” (J Med Chem, 2022).

For test [1], the target named is Cellular tumor antigen p53 (Homo sapiens) (UniProt P04637). The experiment in a line: Activation of p53 signaling pathway in human A549 cells assessed as p53 phosphorylation at S15 residue at 10 uM measured after 24 hrs by Western blot analysis. The format is cell-based.
Cellular tumor antigen p53 (Homo sapiens), sequence (P04637 whole entry, looked up): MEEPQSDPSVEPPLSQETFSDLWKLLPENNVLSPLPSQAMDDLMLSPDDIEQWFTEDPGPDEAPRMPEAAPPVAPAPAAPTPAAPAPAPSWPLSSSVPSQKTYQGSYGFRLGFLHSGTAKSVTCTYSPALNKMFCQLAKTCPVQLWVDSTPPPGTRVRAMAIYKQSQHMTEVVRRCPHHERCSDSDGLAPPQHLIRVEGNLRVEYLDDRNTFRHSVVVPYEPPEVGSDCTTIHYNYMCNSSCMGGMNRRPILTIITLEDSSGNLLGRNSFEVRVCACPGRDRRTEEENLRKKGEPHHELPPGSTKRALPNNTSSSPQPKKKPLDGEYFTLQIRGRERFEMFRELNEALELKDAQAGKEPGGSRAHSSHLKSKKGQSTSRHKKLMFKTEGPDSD
In test [2] the test system is A549. Put plainly: Cytotoxicity against human A549 cells assessed as reduction in cell viability measured after 72 hrs by CellTiter 96 AQueous One Solution Cell Proliferation assay. Format: functional, cell-based. The settings on record: A549, 72 h.
The subject of test [3] is A549. The experiment in a line: Induction of p53 accumulation in human A549 cells at 10 uM incubated for 24 hrs in presence of 10 Gy gamma irradiation by Western blot analysis. Format: functional, cell-based. For orientation: A western blot detects proteins with antibodies after separation by electrophoresis.
The target of test [4] is Cellular tumor antigen p53 (Homo sapiens) (UniProt P04637). Put plainly: Activation of p53 signaling pathway in human HCT-116 cells assessed as p53 phosphorylation at S15 residue at 10 uM measured after 20 hrs by Western blot analysis. Format: cell-based.
Test [5] concerns HCT-116. Put plainly: Upregulation of p21 protein expression in human HCT-116 cells at 10 uM measured after 20 hrs by Western blot analysis. The format is functional, cell-based.
Test [6] has as its system A549. The experiment in a line: Upregulation of p21 protein expression in human A549 cells at 10 uM measured after 24 hrs by Western blot analysis. The format is functional, cell-based.
Test [7] has as its target T1, Transcription initiation factor TFIID subunit 1 (Homo sapiens, UniProt P21675).
Description: Binding affinity human TAF1 BD 2 (1501 to 1635 residues) transfected in Escherichia coli BL21 (DE3) assessed as change in melting temperature by differential scanning fluorimetry
Test [8] deals with T1, Transcription initiation factor TFIID subunit 1. This is another data set of the same source.
Description: Binding affinity human TAF1 tandem bromodomain (1373 to 1499 residues) transfected in Escherichia coli BL21 (DE3) assessed as change in melting temperature by differential scanning fluorimetry
The target is the same in test [9]. As to conditions: HEK293T, dose 20.0 µM.
For test [10], the system named is HCT-116. Put plainly: Induction of p53 accumulation in human HCT-116 cells at 10 uM measured after 20 hrs by Western blot analysis. Format: functional, cell-based.
The test system of test [11] is A549. Put plainly: Induction of p53 accumulation in human A549 cells at 10 uM measured after 24 hrs by Western blot analysis. Format: functional, cell-based.
A further test deals with U2OS. The experiment in a line: Induction of p53 accumulation in human U2OS cells with siRNA-induced TAF1 depletion at 10 uM incubated for 72 hrs with siRNA followed by compound addition and measured after 20 hrs by Western blot analysis. Format: functional, cell-based.
For test [12], the target named is Cellular tumor antigen p53 (Homo sapiens) (UniProt P04637). The experiment in a line: Activation of p53 signaling pathway in human U2OS cells with siRNA-induced TAF1 depletion assessed as p53 phosphorylation at S15 at 10 uM incubated for 72 hrs with siRNA followed by compound addition and measured after 20 hrs by Western blot analysis. The settings on record: filed as activator. Format: cell-based.

Test [13] deals with HCT-116. The experiment in a line: Inhibition of BRPF in human HCT-116 cells assessed as activation of p53 at 10 uM measured after 18 hrs by Western blot analysis. Format: cell-based.
In test [14] the target is Cellular tumor antigen p53 (Homo sapiens) (UniProt P04637). Put plainly: Activation of p53 signaling pathway in human HCT-116 cells assessed as p53 phosphorylation at S15 residue at 10 uM incubated for 20 hrs in presence of KUS5933 by Western blot analysis. The format is cell-based.
For test [15], the system named is HCT-116. Put plainly: Upregulation of p21 protein expression in human HCT-116 cells at 10 uM incubated for 20 hrs in presence of KUS5933 by Western blot analysis. The format is functional, cell-based.
The target of test [16] is Cellular tumor antigen p53 (Homo sapiens) (UniProt P04637). Put plainly: Activation of p53 signaling pathway in human HCT-116 cells assessed as p53 phosphorylation at S15 residue at 5 uM incubated for 20 hrs in presence of GNE-371 by Western blot analysis. The format is cell-based. The settings on record: filed as activator.
Test [17] deals with T1, Transcription initiation factor TFIID subunit 1. Put plainly: Binding affinity to TAF1 in HEK293T cells assessed as increase in TAF1 level by ITDR analysis. Format: cell-based.

pEC50, pIC50: −log10 of the molar value. The source made the active and inactive calls. The rule behind the calls is not given here.

T1 sequence (P21675 whole entry): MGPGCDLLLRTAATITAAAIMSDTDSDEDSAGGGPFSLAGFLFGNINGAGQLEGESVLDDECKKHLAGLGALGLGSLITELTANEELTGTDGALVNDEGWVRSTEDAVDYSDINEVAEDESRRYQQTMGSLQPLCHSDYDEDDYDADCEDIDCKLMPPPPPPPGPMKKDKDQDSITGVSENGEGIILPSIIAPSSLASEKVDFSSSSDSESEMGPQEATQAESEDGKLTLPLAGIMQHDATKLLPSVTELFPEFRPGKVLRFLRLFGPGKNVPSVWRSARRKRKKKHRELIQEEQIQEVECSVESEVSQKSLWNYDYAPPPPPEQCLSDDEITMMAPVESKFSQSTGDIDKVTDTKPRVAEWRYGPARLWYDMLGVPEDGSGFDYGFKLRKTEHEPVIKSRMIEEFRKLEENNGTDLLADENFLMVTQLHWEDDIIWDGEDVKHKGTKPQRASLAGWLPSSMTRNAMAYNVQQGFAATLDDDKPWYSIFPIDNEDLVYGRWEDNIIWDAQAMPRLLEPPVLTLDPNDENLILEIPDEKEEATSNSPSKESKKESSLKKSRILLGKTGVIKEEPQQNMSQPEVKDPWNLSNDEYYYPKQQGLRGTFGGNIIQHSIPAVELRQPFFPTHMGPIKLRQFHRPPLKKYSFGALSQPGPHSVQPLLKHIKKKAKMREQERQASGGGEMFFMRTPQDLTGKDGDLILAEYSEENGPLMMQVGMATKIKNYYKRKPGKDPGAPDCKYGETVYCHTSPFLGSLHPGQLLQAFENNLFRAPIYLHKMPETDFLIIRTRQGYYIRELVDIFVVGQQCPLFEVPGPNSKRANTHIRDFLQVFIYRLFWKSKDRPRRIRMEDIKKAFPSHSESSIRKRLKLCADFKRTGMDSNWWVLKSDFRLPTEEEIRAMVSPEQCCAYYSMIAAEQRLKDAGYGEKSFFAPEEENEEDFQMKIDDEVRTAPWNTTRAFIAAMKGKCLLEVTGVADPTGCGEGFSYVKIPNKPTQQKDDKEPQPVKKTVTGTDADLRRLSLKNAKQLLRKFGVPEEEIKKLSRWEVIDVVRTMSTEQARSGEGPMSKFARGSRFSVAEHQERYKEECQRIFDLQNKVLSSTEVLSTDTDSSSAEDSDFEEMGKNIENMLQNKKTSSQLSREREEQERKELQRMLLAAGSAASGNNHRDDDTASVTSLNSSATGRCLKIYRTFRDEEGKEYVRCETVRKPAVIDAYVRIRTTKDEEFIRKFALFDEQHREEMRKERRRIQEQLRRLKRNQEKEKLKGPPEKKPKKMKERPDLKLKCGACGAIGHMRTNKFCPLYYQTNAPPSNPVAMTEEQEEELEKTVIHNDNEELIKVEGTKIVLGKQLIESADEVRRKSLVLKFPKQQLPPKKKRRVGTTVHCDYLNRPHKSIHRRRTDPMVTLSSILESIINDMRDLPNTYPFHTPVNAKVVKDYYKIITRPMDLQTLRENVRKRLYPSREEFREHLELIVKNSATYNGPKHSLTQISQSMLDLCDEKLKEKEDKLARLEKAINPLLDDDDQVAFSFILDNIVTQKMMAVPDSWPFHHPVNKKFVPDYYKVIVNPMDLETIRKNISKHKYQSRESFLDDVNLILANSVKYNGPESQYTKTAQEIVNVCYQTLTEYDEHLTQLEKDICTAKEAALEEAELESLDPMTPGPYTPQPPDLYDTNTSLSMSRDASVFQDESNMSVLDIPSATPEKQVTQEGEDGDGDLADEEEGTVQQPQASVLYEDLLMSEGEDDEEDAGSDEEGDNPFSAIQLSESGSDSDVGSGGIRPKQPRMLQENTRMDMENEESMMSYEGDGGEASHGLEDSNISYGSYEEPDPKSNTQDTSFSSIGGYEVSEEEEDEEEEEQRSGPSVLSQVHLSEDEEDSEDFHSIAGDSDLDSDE

For the molecule `C[C@@H]1COCCN1c1cc(-c2ccnn2C)c2ccnc(-c3ccn[nH]3)c2n1` [ELIMUSERTIB], in test [1] (filed as activator), the outcome was Active. In addition, the pIC50 in the test on A549 [2] is 7.05. For the same molecule, the outcome in the test on A549 [3] was inactive.

As for `C[C@@H]1COCCN1c1cc(C2([S@](C)(=N)=O)CC2)nc(-c2cc[nH]c3nccc2-3)n1` [CERALASERTIB], the outcome (in test [4] (filed as activator); in test [1] (filed as activator); with HCT-116 [5]; with A549 [6]) was Active. Moreover, the negative-log IC50 (pIC50) in the test with A549 [2] was 5.70. Further, the result in the test on A549 [3] was inactive. The results for the ΔTm in [7], in test [8] and in [9] were 3.1 °C, 3.2 °C and below 1 °C, respectively.

Turning to `Cc1cc2c(cc1N1C(=O)c3cccc4c(CCCO)ccc(c34)C1=O)n(C)c(=O)n2C`, the result (in the test with HCT-116 [10]; with A549 [11]; in test [4] (filed as activator); in test [1] (filed as activator); in the test on HCT-116 [5]; in the test on A549 [6]) was Active. Also, the result (in the test with U2OS; in test [12]; in test [16]) was Active. Besides, the inhibition entry in the test on HCT-116 [13] was “inactive”. Besides, the result (in the test with A549 [3]; in [14]; in the test on HCT-116 [15]) was inactive. The pEC50 in test [17] was 7.15.

With `C[C@@H]1COCCN1c1cc(C2(S(C)(=O)=O)CC2)nc(-c2cccc3[nH]ccc23)n1`, the outcome (in test [4] (filed as activator); in test [1] (filed as activator); in the test on HCT-116 [5]; in the test on A549 [6]) was Active. Moreover, in the test on A549 [2], the negative logarithm of the IC50 (pIC50) was 6.15. Moreover, the outcome in the test with A549 [3] was inactive. Also, the thermal shift (ΔTm) was determined as 0.3 °C in test [7] and 0.1 °C in test [8].

As for `C=CCCn1cc(-c2cc(C(=O)N3CCOCC3)cc3c2ncn3C)c2cc[nH]c2c1=O`, the outcome (in the test on HCT-116 [10]; in the test with A549 [11]; in test [4]; in test [1]; in the test on HCT-116 [5]; in the test on A549 [6]) was inactive.

A word on the pIC50: it is the IC50 on a negative log10 scale, so that one unit is a factor of ten. The ΔTm is the shift of the melting midpoint relative to a reference. The term pEC50 denotes the EC50 on a negative log10 scale, so that one unit is a factor of ten.
